Here are results for 19 compounds from patent publication US8778954B2, “Phenylpyridine derivative and medicinal agent comprising same” (Kowa Company, Ltd., priority 2009, dated 2014).

Molecules are shown by their SMILES.

One assay addresses T1, angiotensin II type 1 receptor (Oryctolagus cuniculus, UniProt P34976).
T1 construct: By using a specimen of isolated rabbit blood vessels; from tissue; host or cells: rabbit (New Zealand White) thoracic aorta ring
T1 sequence (P34976 1-359): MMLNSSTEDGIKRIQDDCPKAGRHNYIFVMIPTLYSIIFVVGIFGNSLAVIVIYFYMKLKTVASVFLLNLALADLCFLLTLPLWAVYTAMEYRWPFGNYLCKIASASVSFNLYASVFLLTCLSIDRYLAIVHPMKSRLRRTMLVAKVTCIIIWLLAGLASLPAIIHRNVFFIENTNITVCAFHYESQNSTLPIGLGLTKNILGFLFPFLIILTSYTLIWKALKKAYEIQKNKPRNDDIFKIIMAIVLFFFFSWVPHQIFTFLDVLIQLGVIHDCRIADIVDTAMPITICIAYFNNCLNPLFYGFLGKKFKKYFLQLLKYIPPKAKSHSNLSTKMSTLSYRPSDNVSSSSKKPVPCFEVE
Description: Angiotensin II receptor antagonistic activity in isolated rabbit blood vessels (thoracic aorta ring, angiotensin II-induced contraction). The format is cell-based. To be noted: 0.1 μM test compound, angiotensin II (10 nM)-induced contraction, read-out: Angiotensin II activity inhibitiom rate (%) at 0.1 μM concentration.
Description: By using a specimen of isolated rabbit blood vessels, antagonistic activity of the compounds of the invention against angiotensin II type 1 receptor was estimated from a dose-response curve of angiotensin II-induced blood vessel contraction. Specifically, the specimen of thoracic aorta ring of a rabbit (New Zealand White: male, 2.4 to 3.0 kg) was suspended in a magnus bath filled with Krebs-Henseleite buffer (composition: 118 mM NaCl, 4.7 mM KCl, 2.55 mM CaCl2, 1.18 mM MgSO4, 1.18 mM KH2PO4, 24.88 mM NaHCO3, and 11.1 mM D-glucose), and angiotensin II (10 nM)-induced contraction was obtained in the presence of the compounds of each test (1 nmol/L to 10 μmol/L). During the measurement, the inside temperature of the magnus bath was maintained at 37° C. and the bath was continuously ventilated with a sufficient amount of mixed gas (95% O2 and 5% CO2). The angiotensin II-induced contraction was converted into a relative value (%) that is based on the angiotensin II (0.1 μM)-induced contraction in the absence of the compounds of each example.
With `CCCCc1nc(C)n(-c2cc(C)ccn2)c(=O)c1Cc1ccc(-c2ccccc2-c2noc(=O)[nH]2)nc1` [Example 15, 3-{2-{5-{[4-butyl-2-methyl-1-(4-methylpyridin-2-yl)-6-oxo-1,6-dihydropyrimidin-5-yl]methyl}pyridin-2-yl}phenyl}-1,2,4-oxadiazol-5(4H)-one], the inhibition at 0.1 µM is 78.3%.
Take `CCCCc1nc(C2CC2)n(-c2ncc(OC)cn2)c(=O)c1Cc1ccc(-c2ccccc2-c2noc(=O)[nH]2)nc1` [Example 22, 3-{2-{5-{[4-butyl-2-cyclopropyl-1-(5-methoxypyrimidin-2-yl)-6-oxo-1,6-dihydropyrimidin-5-yl]methyl}pyridin-2-yl}phenyl}-1,2,4-oxadiazol-5(4H)-one]: the inhibition at 0.1 µM stood at 59.5%.
`CCCCc1nc(C)n(-c2ncc(OCCS(C)(=O)=O)cn2)c(=O)c1Cc1ccc(-c2ccccc2-c2noc(=O)[nH]2)nc1` [Example 29, 3-{2-{5-{{4-butyl-2-methyl-1-{5-[2-(methylsulfonyl)ethoxy]pyrimidin-2-yl}-6-oxo-1,6-dihydropyrimidin-5-yl}methyl}pyridin-2-yl}phenyl}-1,2,4-oxadiazol-5(4H)-one]: the inhibition at 0.1 µM worked out at 96.3%.
As for `CCCCc1nc(C)n(-c2ncc(OC)cn2)c(=O)c1Cc1ccc(-c2ccccc2-c2noc(=O)[nH]2)nc1` [Example 16, 3-{2-{5-{[4-butyl-1-(5-methoxypyrimidin-2-yl)-2-methyl-6-oxo-1,6-dihydropyrimidin-5-yl]methyl}pyridin-2-yl}phenyl}-1,2,4-oxadiazol-5(4H)-one], the inhibition at 0.1 µM was 72.9%.
Regarding `CCCCc1nc(C)n(-c2ncc(OCCS(C)(=O)=O)cn2)c(=O)c1Cc1ccc(-c2ccccc2-c2nnn[nH]2)nc1` [Example 13, 5-{{6-[2-(1H-tetrazol-5-yl)phenyl]pyridin-3-yl}methyl}-6-butyl-2-methyl-3-{5-[2-(methylsulfonyl)ethoxy]pyrimidin-2-yl}pyrimidin-4(3H)-one], the inhibition at 0.1 µM came to 100%.
With `CCCCc1nc(C)n(-c2ncc(OCCSC)cn2)c(=O)c1Cc1ccc(-c2ccccc2-c2nnn[nH]2)nc1` [Example 12, 5-{{6-[2-(1H-tetrazol-5-yl)phenyl]pyridin-3-yl}methyl}-6-butyl-2-methyl-3-{5-[2-(methylthio)ethoxy]pyrimidin-2-yl}pyrimidin-4(3H)-one], the inhibition at 0.1 µM came out at 100%.
In the case of `CCCCc1nc(C)n(-c2ccccn2)c(=O)c1Cc1ccc(-c2ccccc2-c2noc(=O)[nH]2)nc1` [Example 14, 3-{2-{5-{[4-butyl-2-methyl-6-oxo-1-(pyridin-2-yl)-1,6-dihydropyrimidin-5-yl]methyl}pyridin-2-yl}phenyl}-1,2,4-oxadiazol-5(4H)-one], the inhibition at 0.1 µM came to 59.3%.
For the compound `CCCCc1nc(C)n(-c2ncc(OCC)cn2)c(=O)c1Cc1ccc(-c2ccccc2-c2nnn[nH]2)nc1` [Example 2, 5-{{6-[2-(1H-tetrazol-5-yl)phenyl]pyridin-3-yl}methyl}-6-butyl-3-(5-ethoxypyrimidin-2-yl)-2-methylpyrimidin-4(3H)-one], the inhibition at 0.1 µM amounted to 90.8%.
Still for that read-out and setting: the figure for `CCCCc1nc(C)n(-c2ncc(OC)cn2)c(=O)c1Cc1ccc(-c2ccccc2-c2nnn[nH]2)nc1` [Example 1, 5-{{6-[2-(1H-tetrazol-5-yl)phenyl]pyridin-3-yl}methyl}-6-butyl-3-(5-methoxypyrimidin-2-yl)-2-methylpyrimidin-4(3H)-one] is 100%; for `CCCCc1nc(C)n(-c2ncc(OCCSC)cn2)c(=O)c1Cc1ccc(-c2ccccc2-c2noc(=O)[nH]2)nc1` [Example 28, 3-{2-{5-{{4-butyl-2-methyl-1-{5-[2-(methylthio)ethoxy]pyrimidin-2-yl}-6-oxo-1,6-dihydropyrimidin-5-yl}methyl}pyridin-2-yl}phenyl}-1,2,4-oxadiazol-5(4H)-one] it is 86.5%.

For the next assay, the target named is T2, human PPARγ2 (Homo sapiens, UniProt P37231).
T2 construct: the amino acids 182 to 505 of human PPARγ2; expressed in transfected cells; host or cells: COS7 cells (African green monkey kidney)
T2 sequence (P37231 182-505): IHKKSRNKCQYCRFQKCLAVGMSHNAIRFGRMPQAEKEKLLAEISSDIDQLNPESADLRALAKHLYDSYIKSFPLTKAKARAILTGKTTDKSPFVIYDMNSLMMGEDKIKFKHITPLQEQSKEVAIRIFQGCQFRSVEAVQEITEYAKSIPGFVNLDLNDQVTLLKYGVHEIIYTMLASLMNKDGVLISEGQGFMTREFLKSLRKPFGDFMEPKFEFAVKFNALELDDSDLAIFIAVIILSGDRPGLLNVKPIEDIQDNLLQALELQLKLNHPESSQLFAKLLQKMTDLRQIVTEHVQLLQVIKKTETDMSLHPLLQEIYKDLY
Kind of assay: PPARγ activation activity, Gal4-PPARγ2 LBD luciferase transfection assay using COS7 cells. Type of assay: cell-based. Conditions: Gal4-human PPARγ2 LBD chimera, 16 hours, rosiglitazone = 100%. Here is the method:
The agonistic activity of the compounds of the invention on PPARγ was measured based on the transfection assay using COS7 cells (DS Pharma Biomedical Co., Ltd., Osaka, Japan), which are the cell line derived from the kidney of the African green monkey. COS7 cells were cultured under 5% CO2 concentration, and DMEM medium containing 10% fetal bovine serum, glutamic acid, and antibiotics was used as a medium.
As an expression vector, a chimera in which DNA binding domain of Gal4, which is a yeast transcription factor, and ligand binding domain of human PPARγ2 are fused, i.e., a fused product between the amino acids 1 to 147 of Gal4 transcription factor and the amino acids 182 to 505 of human PPARγ2, was used. Furthermore, as a reporter vector, a firefly luciferase containing five copies of Gal4 recognition sequence in the promoter region was used. Plasmid transfection to the cells was performed according to a method which uses jetPEI (trade name, manufactured by Funakoshi Co., Ltd., Tokyo, Japan). Furthermore, β-galactosidase expression vector was employed as an internal standard.
After the transfection of the cells, the medium was replaced with a DMEM medium (containing 1% serum) added with the test compound, and the cells were further cultured for 16 hours. After that, the luciferase activity and β-galactosidase activity in the cell lysis solution were measured.
For the present test, dimethyl sulfoxide (DMSO) was used for dissolution and dilution of the test compounds, and during the cell treatment, the DMSO concentration in DMEM medium (containing 1% serum) was adjusted to 0.1%. As a positive compound, rosiglitazone (trade name, manufactured by ALEXIS Corporation, Switzerland) was used. The luciferase activity (%) of the test compounds (1 to 30 μmol/L) was calculated when the luciferase activity of rosiglitazone (3 to 10 μmol/L) is 100% and the luciferase activity in the absence of the test compound is 0%. The 50% effective concentration of the test compound (EC50, 50% effect concentration) was calculated by using SAS Preclinical Package Ver 5.0 (trade name, manufactured by SAS institute Japan Co., Tokyo, Japan), which is a statistical analysis program.
EC50 values of these compounds are described in Table 2. […] Under the same condition, the PPARγ activation activity of telmisartan, i.e., EC50, was 1 to 5 μM.
As to `CCCCc1nc(C)n(-c2cc(C)ccn2)c(=O)c1Cc1ccc(-c2ccccc2-c2noc(=O)[nH]2)nc1` [Example 15, 3-{2-{5-{[4-butyl-2-methyl-1-(4-methylpyridin-2-yl)-6-oxo-1,6-dihydropyrimidin-5-yl]methyl}pyridin-2-yl}phenyl}-1,2,4-oxadiazol-5(4H)-one], the half-maximal effective concentration (EC50) is 3.61 µM.
On to `CCCCc1nc(C2CC2)n(-c2ncc(OC)cn2)c(=O)c1Cc1ccc(-c2ccccc2-c2noc(=O)[nH]2)nc1` [Example 22, 3-{2-{5-{[4-butyl-2-cyclopropyl-1-(5-methoxypyrimidin-2-yl)-6-oxo-1,6-dihydropyrimidin-5-yl]methyl}pyridin-2-yl}phenyl}-1,2,4-oxadiazol-5(4H)-one], for which the half-maximal effective concentration (EC50) was 1.55 µM.
`CCCCc1nc(CC)n(-c2ncc(OCC)cn2)c(=O)c1Cc1ccc(-c2ccccc2-c2noc(=O)[nH]2)nc1` [Example 19, 3-{2-{5-{[4-butyl-1-(5-ethoxypyrimidin-2-yl)-2-ethyl-6-oxo-1,6-dihydropyrimidin-5-yl]methyl}pyridin-2-yl}phenyl}-1,2,4-oxadiazol-5(4H)-one] had an EC50 of 1.5 µM.
On the same count and under the same terms, the same measure for `CCCCc1nc(C)n(-c2ncc(C(F)(F)F)cc2Cl)c(=O)c1Cc1ccc(-c2ccccc2-c2nnn[nH]2)cn1` [Example 32, 5-{{5-[2-(1H-tetrazol-5-yl)phenyl]pyridin-2-yl}methyl}-6-butyl-3-[3-chloro-5-(trifluoromethyl)pyridin-2-yl]-2-methylpyrimidin-4(3H)-one]: 2.74 µM; for `CCCCc1nc(C(C)C)n(-c2ncc(OCC)cn2)c(=O)c1Cc1ccc(-c2ccccc2-c2nnn[nH]2)nc1` [Example 6, 5-{{6-[2-(1H-tetrazol-5-yl)phenyl]pyridin-3-yl}methyl}-6-butyl-3-(5-ethoxypyrimidin-2-yl)-2-isopropylpyrimidin-4(3H)-one]: 1.36 µM; for `CCCCc1nc(CC)n(-c2ncc(OC)cn2)c(=O)c1Cc1ccc(-c2ccccc2-c2noc(=O)[nH]2)nc1` [Example 18, 3-{2-{5-{[4-butyl-2-ethyl-1-(5-methoxypyrimidin-2-yl)-6-oxo-1,6-dihydropyrimidin-5-yl]methyl}pyridin-2-yl}phenyl}-1,2,4-oxadiazol-5(4H)-one]: 3.39 µM.
The compound `CCCCc1nc(C2CCCCC2)n(-c2ncc(OCC)cn2)c(=O)c1Cc1ccc(-c2ccccc2-c2noc(=O)[nH]2)nc1` [Example 27, 3-{2-{5-{[4-butyl-2-cyclohexyl-1-(5-ethoxypyrimidin-2-yl)-6-oxo-1,6-dihydropyrimidin-5-yl]methyl}pyridin-2-yl}phenyl}-1,2,4-oxadiazol-5(4H)-one] showed an EC50 of 0.67 µM.
In turn, `CCCCc1nc(C2CCC2)n(-c2ncc(OC)cn2)c(=O)c1Cc1ccc(-c2ccccc2-c2noc(=O)[nH]2)nc1` [Example 24, 3-{2-{5-{[4-butyl-2-cyclobutyl-1-(5-methoxypyrimidin-2-yl)-6-oxo-1,6-dihydropyrimidin-5-yl]methyl}pyridin-2-yl}phenyl}-1,2,4-oxadiazol-5(4H)-one] yielded an EC50 of 1.46 µM.
Compound `CCCCc1nc(C2CCC2)n(-c2ncc(OCC)cn2)c(=O)c1Cc1ccc(-c2ccccc2-c2noc(=O)[nH]2)nc1` [Example 25, 3-{2-{5-{[4-butyl-2-cyclobutyl-1-(5-ethoxypyrimidin-2-yl)-6-oxo-1,6-dihydropyrimidin-5-yl]methyl}pyridin-2-yl}phenyl}-1,2,4-oxadiazol-5(4H)-one] registered an EC50 of 0.82 µM.
`CCCCc1nc(C(C)C)n(-c2ncc(OC)cn2)c(=O)c1Cc1ccc(-c2ccccc2-c2noc(=O)[nH]2)nc1` [Example 20, 3-{2-{5-{[4-butyl-2-isopropyl-1-(5-methoxypyrimidin-2-yl)-6-oxo-1,6-dihydropyrimidin-5-yl]methyl}pyridin-2-yl}phenyl}-1,2,4-oxadiazol-5(4H)-one] had an EC50 of 0.85 µM.
`CCCCc1nc(C2CCCC2)n(-c2ncc(OCC)cn2)c(=O)c1Cc1ccc(-c2ccccc2-c2noc(=O)[nH]2)nc1` [Example 26, 3-{2-{5-{[4-butyl-2-cyclopentyl-1-(5-ethoxypyrimidin-2-yl)-6-oxo-1,6-dihydropyrimidin-5-yl]methyl}pyridin-2-yl}phenyl}-1,2,4-oxadiazol-5(4H)-one] showed an EC50 of 0.38 µM. This EC50 lies about 2.2-fold lower than the previous one.

One may read the EC50 as the concentration giving half of the maximal effect. Low readings indicate higher potency in that assay, high ones lower potency in that assay.
